Test results: US12012390B2, “Flavone compounds for the treatment and prophylaxis of hepatitis B virus disease” (priority 2018, dated 2024)
Like-named read-outs stand apart in the source and are kept apart here.

What was measured:
[1] = test system: HBeAg level (surrogate marker for cccDNA) in HepDES19 cells; assay: Engineered HepDES19 primary screen assay (HBeAg as surrogate marker for cccDNA); format: cell-based, HBV
Source text: The assay was employed to screen for novel cccDNA inhibitors. HepDES19 is a cccDNA-producing cell line. In this cell line, HBeAg in the cell culture supernatant as surrogate marker, as HBeAg production depends on cccDNA level and activity. HepDES19 is an engineered cell line which contains a 1.1 unit length HBV genome, and pgRNA transcription from the transgene is controlled by Tetracycline (Tet). In the absence of Tet, pgRNA transcription will be induced, but HBV e antigen (HBeAg) could not be produced from this pgRNA due to very short leader sequence before the HBeAg start codon and the start codon is disrupted. Only after cccDNA is formed, the missing leader sequence and start codon mutation would be restored from the 3′-terminal redundancy of pgRNA, and then HBeAg could be synthesized. Therefore, HBeAg could be used as a surrogate marker for cccDNA (Zhou, T. et al., Antiviral Res. (2006), 72(2), 116-124; Guo, H. et al., J. Virol. (2007), 81(22), 12472-12484).
HepDES19 cells were seeded at 2×10^6 cells per T150 flask and cultured with the culture medium (Dulbecco's Modified Eagle Medium: Nutrient Mixture F-12 [DMEM-F12, Gibco Cat. 11320-82], 10% Fetal Bovine Serum [FBS, Clontech Cat. 631101], 0.1 mM Non-Essential Amino Acids Solution [NEAA, Gibco Cat. 11140-050], 50 μg/mL Penicillin-Streptomycin [PS, Invitrogen Cat. 15140-163], 500 μg/mL Geneticin [G418, Invitrogen Cat. 10131-027]) containing 3 μg/mL Tet (Sigma, Cat. 87128) for 5 days. Cells were then seeded at 4×10^6 cells per T150 in the same culture medium as described above in the absence of Tet for 8 days. Cells were then harvested and frozen at density of 2×10^6 cells per mL. For compound testing, the frozen cells were thawed and seeded into 96-well plates at a density of 6×10^4 cells per well. At 24 hrs after seeding, half log serial dilutions of compounds made with Dimethyl sulfoxide (DMSO, Sigma, Cat. D2650) were further diluted with the same culture medium as described above before they were added to the cells to reach desired final compound concentrations and 1% DMSO concentration. Plates were then incubated at 37° C. for another 5 days before measurement of HBeAg level and cell viability. Intracellular HBeAg level were measured with enzyme-linked immunosorbent assay (ELISA) kit (Shanghai Kehua Diagnostic Medical Products Co., Ltd). Cell viability was assessed using Cell Counting Kit-8 (Donjindo, Cat. CK04-20). IC50 values were derived from the dose-response curve using 4 parameter logistic curve fit method.
The compounds of the present invention were tested for their capacity to inhibit extracellular HBeAg level as described herein.

[2] = test system: HBV in primary human hepatocytes (PHH); assay: Cryopreserved primary human hepatocytes (PHH) HBV infection assay; format: cell-based; conditions: HBV-infected cryopreserved PHH, 9 days post-compound treatment, extracellular HBsAg by CLIA, read-out: HBsAg IC50
Protocol: This assay is used to confirm the anti-HBV effect of the compounds in HBV PHH infection assay. Cryopreserved PHH (BioreclamationIVT, Lot YJM) was thawed at 37° C. and gently transferred into pre-warmed InVitroGRO HT medium (BioreclamationIVT, Cat. S03317). The mixture was centrifuged at 70 relative centrifugal force (RCF) for 3 minutes at RT, and the supernatant was discarded. Pre-warmed InVitroGRO CP medium (BioreclamationIVT, Cat #S03316) was added to the cell pellet to gently re-suspend cells. The cells were seeded at the density of 5.8×10^4 cells per well to collagen I coated 96-well plate (Gibco, Cat. A1142803) with the InVitroGRO CP medium. All plates were incubated at 37° C. with 5% CO2 and 85% humidity.
At 20 hours after plating, the medium was changed to PHH culture medium (Dulbecco's Modified Eagle Medium (DMEM)/F12 (1:1) (Gibco, Cat. 11320-033), 10% fetal bovine serum (Gibco Cat. 10099141), 100 U/mL penicillin, 100 μg/mL streptomycin (Gibco, Cat. 151401-122), 5 ng/mL human epidermal growth factor (Invitrogen Cat. PHG0311L), 20 ng/mL dexamethasone (Sigma, Cat. D4902) and 250 ng/mL human recombinant insulin (Gibco, Cat. 12585-014)). And the cells were incubated at 37° C. with 5% CO2 and 85% humidity for 4 hours. The medium was then changed to pre-warmed PHH culture medium containing 4% polyethylene glycol (PEG) MW8000 (Sigma, Cat. P1458-50ML) and 1% DMSO (Sigma, Cat. D2650). 5.8×10^6 genomic equivalents of HBV were added into the medium.
At 24 hours post-infection, the cells were gently washed with PBS and refreshed with PHH culture medium supplemented with 1% DMSO, and 0.25 mg/mL Matrix gel (Corning, Cat. 356237) at 200 μL per well. All plates were immediately placed in at 37° C. CO2 incubator.
24 hours later, serial dilutions of compounds made with DMSO were further diluted with the same culture medium (PHH culture medium supplemented with 1% DMSO and 0.25 mg/mL Matrix gel as described above) before they were added to the cells to reach desired final compound concentrations and 1% DMSO concentration. The medium containing the compounds were refreshed every three days.
At 9 days post-compound treatment, extracellular HBsAg level were measured with Chemiluminescence Immuno Assay (CLIA) kit (Autobio, HBsAg Quantitative CLIA). Extracellular HBV DNA was extracted by MagNA Pure 96 system (Roche) and then determined by quantitative PCR with the following primers and probe: […]
HBsAg IC50 and HBV DNA IC50 values were derived from the dose-response curve using 4 parameter logistic curve fit method. The compounds of formula (I) have HBsAg IC50<20 μM, particularly <1 μM; and HBV DNA IC50<50 μM. Test results of the compounds of this invention as well as the reference compounds in Cryopreserved PHH assay are given in Table 2 and Table 3.

[3] = read-out: IC50 (HBeAg) in HepDES19 primary screen assay, HepDES19 cells, 5 days incubation with compound, HBeAg by ELISA
[4] = Hepatitis B virus, HepDES19, 120 h, read-out: IC50 (HBeAg) in HepDES19 primary screen assay, HepDES19 cells, 5 days incubation with compound, HBeAg by ELISA
[5] = Hepatitis B virus, Hepatocyte, 216 h

Structure (SMILES)	IC50 [1, 3] [nM]	IC50 [2] [nM]	IC50 [1, 4] [nM]	IC50 [2, 5] [nM]
CCOC(=O)C1CC1OCCOc1ccc(-c2cc(=O)c3cccc(Cl)c3o2)cc1 (single isomer, unassigned) [Example 4-B, ethyl 2-[2-[4-(8-chloro-4-oxo-chromen-2-yl)phenoxy]ethoxy]cyclopropanecarboxylate]	5230	510		
O=c1cc(-c2ccc(OCCO[C@H]3C[C@@H](C(=O)O)C3)cc2)oc2c(Br)cccc12 [Example 33, Cis-3-[2-[4-(8-bromo-4-oxo-chromen-2-yl)phenoxy]ethoxy]cyclobutanecarboxylic acid]			310	680
O=c1c(O)c(-c2ccc(OCCO[C@H]3C[C@@H](C(=O)O)C3)cc2)oc2c(Cl)cccc12 [Example 55, Cis-3-[2-[4-(8-chloro-3-hydroxy-4-oxo-chromen-2-yl)phenoxy]ethoxy]cyclobutanecarboxylic acid]			120	9500
O=c1cc(-c2ccc(OCCO[C@H]3C[C@@H](C(=O)O)C3)c(Cl)c2)oc2c(Cl)c(C(F)(F)F)ccc12 [Example 73, Cis-3-[2-[2-chloro-4-[8-chloro-4-oxo-7-(trifluoromethyl)chromen-2-yl]phenoxy]ethoxy]cyclobutanecarboxylic acid]			15400	6770
O=c1cc(-c2ccc(OCCO[C@H]3C[C@H](C(=O)O)C3)cc2)oc2c(Cl)cccc12 [Example 1-B, trans-3-[2-[4-(8-chloro-4-oxo-chromen-2-yl)phenoxy]ethoxy]cyclobutanecarboxylic acid]			140	80
O=c1cc(-c2cnc(OCCO[C@H]3C[C@@H](C(=O)O)C3)cn2)oc2c(Cl)cccc12 [Example 39, Cis-3-[2-[5-(8-chloro-4-oxo-chromen-2-yl)pyrazin-2-yl]oxyethoxy]cyclobutanecarboxylic acid]			9010	5740
COc1ccc(-c2cc(=O)c3ccccc3o2)cc1 [Example F-2, 4′-methoxyflavone, reference compound]			16300	46500
COc1ccc2c(=O)cc(-c3ccc(OCCOC4CC(C(=O)O)C4)cc3)oc2c1Cl (centres unmarked) [Example 19, 3-[2-[4-(8-chloro-7-methoxy-4-oxo-chromen-2-yl)phenoxy]ethoxy]cyclobutanecarboxylic acid]			22200	1510
O=C(O)C1CC(OCCOc2ccc(-c3oc4c(Cl)cc(F)cc4c(=O)c3OC(F)(F)F)cc2)C1 (centres unmarked) [Example 63, 3-[2-[4-[8-chloro-6-fluoro-4-oxo-3-(trifluoromethoxy)chromen-2-yl]phenoxy]ethoxy]cyclobutanecarboxylic acid]			1810	5360
O=C(O)C1CC(OCCCOc2ccc(-c3cc(=O)c4cccc(Cl)c4o3)cc2)C1 (centres unmarked) [Example 13, 3-[3-[4-(8-chloro-4-oxo-chromen-2-yl)phenoxy]propoxy]cyclobutanecarboxylic acid]			690	1270
O=C(O)[C@H]1C[C@H]1OCCOc1ccc(-c2cc(=O)c3cccc(Cl)c3o2)cc1 (single isomer, unassigned) [Example 5-B, 2-[2-[4-(8-chloro-4-oxo-chromen-2-yl)phenoxy]ethoxy]cyclopropanecarboxylic acid]	11200			1780
COc1cc(OCCOC2CC(C(=O)O)C2)ccc1-c1cc(=O)c2cccc(Cl)c2o1 (centres unmarked) [Example 50, 3-[2-[4-(8-chloro-4-oxo-chromen-2-yl)-3-methoxy-phenoxy]ethoxy]cyclobutanecarboxylic acid]			1780	10200
O=C(O)C1CC(OCCOc2ccc(-c3cc(=O)c4ccc(Cl)c(Cl)c4o3)cc2)C1 (centres unmarked) [Example 21, 3-[2-[4-(7,8-dichloro-4-oxo-chromen-2-yl)phenoxy]ethoxy]cyclobutanecarboxylic acid]			290	5100
O=C(O)C1CC(OCCOc2ccc(-c3cc(=O)c4ccc(F)c(Cl)c4o3)cc2)C1 (centres unmarked) [Example 15, 3-[2-[4-(8-chloro-7-fluoro-4-oxo-chromen-2-yl)phenoxy]ethoxy]cyclobutanecarboxylic acid]			10300	280
COC(=O)C1CC(OCCOc2ccc(-c3oc4c(Cl)cc(F)cc4c(=O)c3OC(F)(F)F)cc2)C1 (single isomer, unassigned) [Example 62-A, methyl 3-[2-[4-[8-chloro-6-fluoro-4-oxo-3-(trifluoromethoxy)chromen-2-yl]phenoxy]ethoxy]cyclobutanecarboxylate]			1010	4220
CCOC(=O)C1CC1OCCOc1ccc(-c2cc(=O)c3cccc(Cl)c3o2)cc1 (single isomer, unassigned) [Example 4-A, ethyl 2-[2-[4-(8-chloro-4-oxo-chromen-2-yl)phenoxy]ethoxy]cyclopropanecarboxylate]	530	6340		
O=C(O)C1CC(OCCOc2ccc(-c3cc(=O)c4cccc(Cl)c4s3)cc2)C1 (centres unmarked) [Example 57, 3-[2-[4-(8-chloro-4-oxo-thiochromen-2-yl)phenoxy]ethoxy]cyclobutanecarboxylic acid]			90	140
O=c1cc(-c2ccc(OCCO[C@H]3C[C@@H](C(=O)O)C3)c(Br)c2)oc2c(Cl)cccc12 [Example 44, Cis-3-[2-[2-bromo-4-(8-chloro-4-oxo-chromen-2-yl)phenoxy]ethoxy]cyclobutanecarboxylic acid]			570	40
O=c1cc(-c2ccc(OCCO[C@H]3C[C@@H](C(=O)O)C3)c(Cl)c2)oc2c(Cl)cccc12 [Example 43, Cis-3-[2-[2-chloro-4-(8-chloro-4-oxo-chromen-2-yl)phenoxy]ethoxy]cyclobutanecarboxylic acid]			250	220
